Patent US20090036416A1, “Novel CXCR4 Antagonist and Use Thereof” (Kyoto University, priority 2005, published 2009)
pEC50, pIC50: −log10 of the molar value.

Key:
CXCR4 [1] = target: T1, CXCR4 (Homo sapiens, UniProt P61073); test: CXCR4 antagonistic activity: inhibition of Ca2+ movement induced by SDF-1a in CXCR4 transfected CHO cells (Fura-2); format: cell-based; details: for CXCR4 antagonistic activity (in words): comment in the text on Tables 1 to 3
Protocol: Various aromatic compounds each having a dipicolylamine-zinc complex were prepared, and their CXCR4 antagonistic effects were examined using the following method.
A CXCR4 transfected Chinese hamster ovary(CHO) cells (3×10^4 cell/100 μL/well) were plated in each well of a flat-bottomed micro-titer tray. The samples were incubated in a CO2 incubator at 37° C., and the cells were loaded in Ham F-12 buffer(80 μL/well) for an hour at 37° C., together with 5 μM Fura-2AM (Dojindo, Kumatomo, Japan), 2.5 mM Probenecid (Sigma) and 20 mM HEPES(pH7.4).
Thereafter, the cells were washed twice with Hank's balanced salt solution (100 μL×2), and placed in a spectrofluorimeter (96 well Fluorescence Drug Screening System, Hamamatsu Photonics K.K. Japan). 30 seconds after the measurement started, the cells were incubated in Hank's balanced salt solution with plural test compounds of different concentrations. After 3 minutes, recombinant SDF-1a (PreproTech, 30 nM/[…]/well) was added.
Changes of the CXCR4 transfect CHO cell system loaded with Fura2-A[Ca^2+], were recorded in real time with a modification method of Fura-2. The CXCR4 antagonistic effect was measured based on the inhibition of Ca^2+ movement induced by the stimulation of SDF-1a via CXCR4 (IC50).

CXCR4 [2] = target: T1, CXCR4; test: CXCR4 binding activity: inhibition of 125I-SDF-1a bonding to CXCR4 transfected CHO cells
HIV-1IIIB = details: read-out: EC50 (anti-HIV-1 activity); HIV-1IIIB infected MT-4 cells, virus number/cells number=0.01, five days, MTT viable cell count

T1 sequence (P61073 whole entry): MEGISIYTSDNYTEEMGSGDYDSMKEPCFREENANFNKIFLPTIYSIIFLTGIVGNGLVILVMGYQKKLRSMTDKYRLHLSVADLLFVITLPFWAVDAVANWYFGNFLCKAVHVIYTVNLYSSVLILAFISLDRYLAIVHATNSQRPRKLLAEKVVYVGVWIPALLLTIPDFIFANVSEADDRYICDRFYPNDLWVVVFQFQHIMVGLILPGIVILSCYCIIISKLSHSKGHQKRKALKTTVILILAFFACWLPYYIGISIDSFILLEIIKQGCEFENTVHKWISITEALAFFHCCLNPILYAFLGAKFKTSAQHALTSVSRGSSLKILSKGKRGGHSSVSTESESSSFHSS

| Molecule | pIC50 (CXCR4 [1]) | also measured |
| --- | --- | --- |
| 9,10-bis[(2,2′-dipicolylamino) methyl]anthracene/Zn complex [Example Compound 9] |  | CXCR4 antagonistic activity (in words) (CXCR4 [1]): high activity; pIC50 (CXCR4 [1]; inhibition of Ca2+ movement induced by SDF-1a (30 nM) via CXCR4, CXCR4 transfected CHO cells): 6.62 |
| c1ccc(CN(Cc2ccc(-c3ccc(CN(Cc4ccccn4)Cc4ccccn4)cc3)cc2)Cc2ccccn2)nc1 [Comparative Example Compound B, reference compound] | < 5.00 |  |
| c1ccc(CN(Cc2ccnc(-c3cc(CN(Cc4ccccn4)Cc4ccccn4)ccn3)c2)Cc2ccccn2)nc1 [Example Compound 5] | 6.34 |  |
| C[C@H](NC(=O)[C@H](CCCNC(=N)N)NC(=O)c1ccc(CNCc2ccccn2)cc1)c1cccc2ccccc12 [Reference Example Compound III, reference compound] | 6.62 | pIC50 (CXCR4 [2]): 7.47 |
| bis(2,2′-dipicolylamino)-p-xylene/zinc complex [Example Compound 1] |  | CXCR4 antagonistic activity (in words) (CXCR4 [1]): strong CXCR4 antagonistic activity; CXCR4 bonding activity (in words) (CXCR4 [2]; comment in the text on Table 4): comparative to that of Reference Example Compound III (KRH-1636); pEC50 (HIV-1IIIB): 5.15 |

More lines, main results first:

| pIC50 (CXCR4 [1]) | Molecule | also measured |
| --- | --- | --- |
| < 5.00 | c1ccc(CN(Cc2ccc(CN(Cc3ccccn3)Cc3ccccn3)cc2)Cc2ccccn2)nc1 [Comparative Example Compound A, reference compound] |  |
| 6.46 | c1ccc(CN(Cc2cccc(-c3cccc(CN(Cc4ccccn4)Cc4ccccn4)c3)c2)Cc2ccccn2)nc1 [Example Compound 3] |  |
| 6.11 | c1ccc(CN(Cc2ccccn2)Cc2c3ccccc3cc3ccccc23)nc1 [Example Compound 8] |  |
